Measurements: patent US4022900A, “Compositions containing 1,2,3,4-tetrahydroisoquinolines used as hypotensive agents” (Marion Laboratories, Inc., priority 1972, dated 1977)
Structures can show the parent of a compound that is named as a salt. Where two headings read alike, the source gives them in different places.

Columns and labels:
[1] = Acute toxicity (LD50) in the mouse; settings: in vivo; for LD50: Table I, unit, species and route not given; for LD50 at 24 h: ip, read-out: Approximate Acute Toxicity (24 hrs.) In the Mouse, LD50
Description: 5-(3,4,5-trimethoxybenzamido)-2-methyl-1,2,3,4-tetrahydroisoquinoline (M-20) in mice has an LD-50 of about 125 to 250 mg/kg intraperitoneally.
(§1) Additional compounds have been tested. The toxicity data for the additional compounds tested, and their identity, is given in the following Table II while the blood pressure lowering activity of the compounds is given in the following Table III. The heading "Example Number" in the tables refers to the working example herein which discloses the compounds and its preparation. The test procedure used for determining the blood pressure lowering activity of the compounds is the same as that previously set forth herein. However, the figures in Table III are expressed as percentage change in blood pressure, rather than in mm of mercury change in blood pressure, as presented in Table I herein.
Approximate Acute Toxicity (24 hrs.)
(a) Suspension in 1% tragacanth
(b) Solution in distilled water
(c) Solubilized with the aid of dilute acid

[2] = system: systolic blood pressure of deoxycorticosterone acetate hypertensive rats; test: Hypotensive activity in DCA/saline hypertensive rats (systolic blood pressure, tail cuff); assay type: in vivo, rat (male, CD strain); settings: for Lowering of Blood Pressure in Hypertensive rate in mm's of Hg., 1 hr. / Lowering of Blood Pressure in Hypertensive rate in mm's of Hg., 2 hrs. / Lowering of Blood Pressure in Hypertensive rate in mm's of Hg., 4 hrs. / Lowering of Blood Pressure in Hypertensive rate in mm's of Hg., 24 hrs. / compounds which appear most active from Table I: 50 mg/kg intraperitoneal; for Lowering of Blood Pressure in Hypertensive rate in mm's of Hg., 1 hr. / Lowering of Blood Pressure in Hypertensive rate in mm's of Hg., 2 hrs. / Lowering of Blood Pressure in Hypertensive rate in mm's of Hg., 4 hrs. / Lowering of Blood Pressure in Hypertensive rate in mm's of Hg., 24 hrs.: change vs predrug control, six rats; for compounds which appear most active from Table I: qualitative ranking; for Percent Change in Pressure from Control ± S.E., 2 Hours / Percent Change in Pressure from Control ± S.E., 4 Hours / Percent Change in Pressure from Control ± S.E., 24 Hours / Percent Change in Pressure from Control ± S.E., 1 Hour: 50 mg/kg i.p., systolic pressure, * <0.05 significance (Newman-Keuls)
Description: Hypertension was produced in weanling (30-day old) male rats of the CD strain obtained from the Charles River Breeding Laboratories (Wilmington, Mass.) by subcutaneously implanting about the dorsal surface of the neck a pellet of deoxycorticosterone acetate (DCA) containing 10 mg DCA in a mixture of Carbowax 4000 (Union Carbide) and Flexowax C light (Glyco Products). Their drinking water was replaced by a 1% sodium chloride solution, a procedure known to facilitate the development of an experimental hypertension, and they had free access to chow. Systolic blood pressure in the caudal arteries was measured indirectly by a pneumatic pulse transducer and a tail pressure cuff on a Physiograph Four recorder (Narco Bio-Systems, Inc., Houston, Texas) in unanesthetized but restrained rats prewarmed to 40° C., 10-15 minutes prior to the determination. The rats were kept at a temperature of 40° C. for all determinations of systolic pressure in an attempt to minimize variations in blood pressure due to marked changes in arterial tone caused by changes in temperature. Blood pressures were measured at intervals in the DCA-treated rats given saline and in non-treated control rats. After 20 days, the mean systolic pressure in the DCA-treated rats was above 150 mm Hg. Hypertension was regarded as being established in the rats at this stage and they were at intervals, usually beginning with the 30th day after DCA-implant in testing for hypotensive activity. Following a series of control blood pressure readings, a dose of 50 mg/kg of the compound under investigation was administered by intraperitoneal injection either in solution or as a suspension in 1% tragacanth solution to groups of six hypertensive rats. Blood pressures were redetermined at 1, 2, 4 and 24 hour periods following injection. At each interval, the systolic pressure was measured a minimum of five times in each rat and the average value was calculated. Mean values for the group were calculated from the individual average values and compared with their predrug control levels. The statistical significance of the changes produced by the compounds, in the doses employed, was tested by the "t" test as well as by an analysis of variance. The reductions in blood pressure obtained with the indicated representative tetrahydroisoquinoline compounds are shown in Table I. The code number for the compound and the example herein showing its preparation are both given in Table I.
as §1

[3] = solubilized with the aid of dilute acid

Row | Compound | LD50 [1] | Lowering of Blood Pressure in Hypertensive rate in mm's of Hg., 1 hr. [2] | Lowering of Blood Pressure in Hypertensive rate in mm's of Hg., 2 hrs. [2] | Lowering of Blood Pressure in Hypertensive rate in mm's of Hg., 4 hrs. [2] | Lowering of Blood Pressure in Hypertensive rate in mm's of Hg., 24 hrs. [2] | compounds which appear most active from Table I [2] | LD50 at 24 h [1, 3] | Percent Change in Pressure from Control ± S.E., 2 Hours [2] | Percent Change in Pressure from Control ± S.E., 4 Hours [2] | Percent Change in Pressure from Control ± S.E., 24 Hours [2] | LD50 at 24 h ([1]; solution in distilled water) | Percent Change in Pressure from Control ± S.E., 1 Hour [2]
1 | CCCN1CCc2c(cccc2NC(=O)c2cc(OC)c(OC)c(OC)c2)C1 [M-49, 5-(3,4,5-Trimethoxybenzamido)-2-n-propyl-1,2,3,4-tetrahydroisoquinoline] | 125 to 250 mg/kg | -31±6 mm's of Hg | -27±6 mm's of Hg | -21±6 mm's of Hg | -17±6 mm's of Hg | most active |  |  |  |  |  | 
2 | COc1cc(OC)c(C(=O)Nc2cccc3c2CCN(C)C3)cc1OC [M-61, 5-(2,4,5-Trimethoxybenzamido)-2-methyl-1,2,3,4-tetrahydroisoquinoline] | 68 to 125 mg/kg | -15±4 mm's of Hg | -19±5 mm's of Hg | -15±4 mm's of Hg | -6±6 mm's of Hg |  |  |  |  |  |  | 
3 | CN1CCc2c(cccc2NC(=O)c2ccccc2[N+](=O)[O-])C1 [M-69, 5-(2-Nitrobenzamido)-2-methyl-1,2,3,4-tetrahydroisoquinoline] |  |  |  |  |  |  | 125 to 250 mg/kg | -4.1 ± 3.0% | -3.3 ± 4.0% | -1.0 ± 3.0% |  | 
4 | COc1cccc(OC)c1C(=O)Nc1cccc2c1CCN(C)C2 [M-57, 5-(2,6-Dimethoxybenzamido)-2-methyl-1,2,3,4-tetrahydroisoquinoline] | 250 to 500 mg/kg | -2±8 mm's of Hg | -7±5 mm's of Hg | -14±10 mm's of Hg | -14±10 mm's of Hg |  |  |  |  |  |  | 
5 | COc1cc(C(=O)Nc2cccc3c2CN(C)CC3)cc(OC)c1OC [M-65, 8-(3,4,5-Trimethoxybenzamido)-2-methyl-1,2,3,4-tetrahydroisoquinoline] | 250 to 500 mg/kg | -55±10 mm's of Hg | -44±8 mm's of Hg | -27±3 mm's of Hg | -21±7 mm's of Hg | most active |  |  |  |  |  | 
6 | COc1cc(C(=O)Nc2ccc3c(c2)CCN(C)C3)cc(OC)c1OC [M-72, 6-(3,4,5-Trimethoxybenzamido)-2-methyl-1,2,3,4-tetrahydroisoquinoline HCl] |  |  |  |  |  |  |  | -19.4 ± 4.0% | -11.9 ± 3.4% | -3.8 ± 1.3% | 188 to 250 mg/kg | -21.6 ± 1.7%
7 | COc1ccc(C(=O)Nc2cccc3c2CCN(C)C3)cc1 [M-56, 5-(4-Methoxybenzamido)-2-methyl-1,2,3,4-tetrahydroisoquinoline] | 62 to 125 mg/kg | -14±5 mm's of Hg | -30±8 mm's of Hg | -19±6 mm's of Hg | -18±4 mm's of Hg |  |  |  |  |  |  | 
8 | COc1ccc(C(=O)Nc2cccc3c2CCN(C)C3)cc1OC [M-55, 5-(3,4-Dimethyoxybenzamido)-2-methyl-1,2,3,4-tetrahydroisoquinoline] | 125 to 250 mg/kg | -32±5 mm's of Hg | -31±5 mm's of Hg | -32±4 mm's of Hg | -20±4 mm's of Hg | most active |  |  |  |  |  | 
9 | CN1CCc2c(cccc2NC(=O)c2ccccc2Cl)C1 [M-63, 5-(2-Chlorobenzamido)-2-methyl-1,2,3,4-tetrahydroisoquinoline] | 125 to 188 mg/kg | -25±2 mm's of Hg | -36±4 mm's of Hg | -34±4 mm's of Hg | -28±4 mm's of Hg | most active |  |  |  |  |  | 
10 | COc1cc(C(=O)Nc2ccc3c(c2)CN(C)CC3)cc(OC)c1OC [M-59, 7-(3,4,5-Trimethoxybenzamido)-2-methyl-1,2,3,4-tetrahydroisoquinoline] | 250 to 500 mg/kg | -60±7 mm's of Hg | -46±7 mm's of Hg | -34±6 mm's of Hg | -18±7 mm's of Hg | most active |  |  |  |  |  | 
11 | CN1CCc2c(cccc2NC(=O)c2ccccc2)C1 [M-54, 5-(benzamido)-2-methyl-1,2,3,4-tetrahydroisoquinoline] | 125 to 250 mg/kg | -7±7 mm's of Hg | -14±6 mm's of Hg | -15±6 mm's of Hg | -10±3 mm's of Hg |  |  |  |  |  |  | 
12 | CCCN1CCc2c(cccc2NC(=O)c2ccc(OC)c(OC)c2)C1 [M-47, 5-(3,4-Dimethoxybenzamido)-2-n-propyl-1,2,3,4-tetrahydroisoquinoline] | 250 to 500 mg/kg | -35±7 mm's of Hg | -46±11 mm's of Hg | -41±8 mm's of Hg | -22±4 mm's of Hg | most active |  |  |  |  |  | 
13 | CN1CCc2c(cccc2NC(=O)c2ccccc2F)C1 [M-68, 5-(2-Fluorobenzamido)-2-methyl-1,2,3,4-tetrahydroisoquinoline] | 250 to 500 mg/kg | -13±5 mm's of Hg | -10±5 mm's of Hg | -11±4 mm's of Hg | -20±4 mm's of Hg |  |  |  |  |  |  | 
14 | CN1CCc2c(cccc2NC(=O)c2ccccc2I)C1 [M-70, 5-(2-Iodobenzamido)-2-methyl-1,2,3,4-tetrahydroisoquinoline] |  |  |  |  |  |  | < 31 mg/kg | -9.9 ± 2.1% | -5.7 ± 1.9% | -0.7 ± 2.9% |  | -6.8 ± 2.1%
